Source: patent US11696913B2, “Prolonged ectoparasite-controlling agent for animal” (MITSUI CHEMICALS AGRO, INC., priority 2017, dated 2023)

Legend:
[1] = test system: Amblyomma americanum; test: In vitro contact test with hard ticks (Amblyomma americanum nymphs); settings: read-out: acaricidal activity; for pest or weed control at 1 µg/cm2, 1 µg/cm2: dose 1 μg/cm^2, 48 h; for pest or weed control at 0.2 µg/cm2, 0.2 µg/cm2: dose 0.2 μg/cm^2, 48 h
Experimental: (§1) In Vitro Contact Tests with Adult Hard Ticks
(§2) In vitro contact tests with ticks were conducted with adult males and females of Rhipicephalus sanguineus, Ixodes ricinus, or Dermacentor variabilis, or nymphs of Amblyomma americanum.
(§3) For the coating of the test vials, the test substance was dissolved and diluted in acetone p.a. to the desired concentration. The solution was then homogeneously applied to the inner wall and base of a glass vial by turning and rocking on an orbital shaker until complete evaporation of the solvent. For example, with a 900 ppm solution of test substance, an area-based dose of 5 μg/cm^2 was achieved.
(§4) After the solvent was completely evaporated, 5-10 adult ticks were put in each coated test vial, which was then sealed with a perforated plastic lid and incubated in a horizontal position in the dark at room temperature and ambient humidity (Rhipicephalus sanguineus) or in a climate-controlled cabinet (Ixodes ricinus, Dermacentor variabilis, Amblyomma americanum [21° C., 85% rel. hum.]). Acaricidal activity against the respective tick species was determined after 48 h. For this, ticks were collected to the base of the test vial by gentle knocking, and test vials were then incubated on a hotplate at 45-50° C. for no longer than 5 min. Ticks which remained motionless on the base of the test vial or moved uncoordinated without deliberately climbing up to avoid the heat were considered dead or moribund, respectively.
(§5) A substance was judged to have good acaricidal activity against the respective tick species when at least 80% of ticks were found dead or moribund at a dose of the substance of g/cm^2. An acaricidal activity of 100% means all ticks were dead or moribund. An acaricidal activity of 0% means none of the ticks was found dead or moribund.

[2] = test system: Rhipicephalus (Boophilus) microplus; test: In vitro injection test with Rhipicephalus (Boophilus) microplus (BOOPMI Inj); settings: 168 h, laid fertile eggs after 7 days, read-out: acaricidal activity; for pest or weed control at 0.0008 mg: dose 0.8 μg/animal injected; for pest or weed control at 0.00016 mg: dose 0.16 μg/animal injected; for pest or weed control at 32 ng: dose 0.032 μg/animal injected
Experimental: In Vitro Injection Test with Rhipicephalus (Boophilus) Microplus (BOOPMI Inj)
To produce an appropriate mixture for injection, the test substance was dissolved and diluted in dimethyl sulphoxide to the desired concentration. 1 μl of the test mixture was injected into the abdomen of each of 5 engorged adult female cattle ticks (Rhipicephalus (Boophilus) microplus). The ticks were transferred into petri dishes and maintained in a climate-controlled room [28° C., 85% rel. hum.].
Acaricidal activity against cattle ticks was assessed after 7 days by assessment of laid fertile eggs. […] An acaricidal activity of 100% means that none of the ticks laid eggs or laid eggs were infertile; 0% means that the ticks laid eggs, and all the eggs were fertile.

[3] = test system: Ctenocephalides felis; test: In vitro contact test with fleas; settings: read-out: insecticidal activity; for pest or weed control at 0.2 µg/cm2, 0.2 µg/cm2: dose 0.2 μg/cm^2, dead or moribund fleas after 48 h; for pest or weed control at 1 µg/cm2, 1 µg/cm2: dose 1 μg/cm^2, dead or moribund fleas after 48 h
Experimental: In Vitro Contact Tests with Fleas
In vitro contact tests with fleas were conducted with adult male and female cat fleas (Ctenocephalides felis).
as §3, with “To coat” for “For the coating of”, “tubes,” for “vials,”, “tube” for “vial”
Upon complete evaporation of the solvent, 5-10 adult cat fleas (Ctenocephalides felis) were added to each coated tube, which was then sealed with a perforated plastic lid and incubated in a horizontal position at room temperature and ambient humidity. After 48 h, insecticidal activity against fleas was determined. For this, fleas were collected to the base of the tube by knocking the tube, and the tube was allowed to stand upright. Fleas which remained motionless at the base or moved in an uncoordinated manner were considered dead or moribund, respectively.
A substance was judged to have good insecticidal activity against Ctenocephalides felis when at least 80% of the fleas were found dead or moribund at a dose of the substance of μg/cm^2. 100% insecticidal activity means that all the fleas were found dead or moribund. 0% insecticidal activity means that no fleas were found dead or moribund.

[4] = test system: Rhipicephalus sanguineus; test: In vitro contact test with adult hard ticks (Rhipicephalus sanguineus); settings: read-out: acaricidal activity; for pest or weed control at 0.2 µg/cm2, 0.2 µg/cm2: dose 0.2 μg/cm^2, 48 h; for pest or weed control at 1 µg/cm2, 1 µg/cm2: dose 1 μg/cm^2, 48 h; for pest or weed control at 0.04 µg/cm2, 0.04 µg/cm2: dose 0.04 μg/cm^2, 48 h
Experimental: as §1, §2, §3, §4, §5

[5] = test system: Ctenocephalides felis; test: Ctenocephalides felis in-vitro feeding test with fleas (CTECFE oral); settings: 48 hours, read-out: insecticidal feeding activity; for pest or weed control at 4 ppm: dose 4 ppm in citrated cattle blood; for pest or weed control at 0.8 ppm: dose 0.8 ppm in citrated cattle blood; for pest or weed control at 0.16 ppm: dose 0.16 ppm in citrated cattle blood
Experimental: Ctenocephalides felis In-Vitro Feeding Test with Fleas (CTECFE Oral)
To prepare a test blood mixture for feeding fleas, the test substance was dissolved in dimethyl sulphoxide and diluted with citrated cattle blood to the desired concentration.
To assemble the test set-up, about 20 unfed adult male and female cat fleas
(Ctenocephalides felis) were placed in a chamber which was closed at the top and bottom with gauze. A metal cylinder was sealed at one end with parafilm membrane, placed with the sealed base onto the chamber, and filled with the test blood mixture, which could be imbibed by the fleas through the parafilm membrane. The assembled test set-up was maintained at about 37° C. After 48 hours, the insecticidal feeding activity against fleas was determined. 100% means that all of the fleas were killed; 0% means that none of the fleas was killed.

[6] = test system: Dermacentor variabilis; test: In vitro contact test with adult hard ticks (Dermacentor variabilis); settings: read-out: acaricidal activity; for pest or weed control at 1 µg/cm2, 1 µg/cm2: dose 1 μg/cm^2, 48 h
Experimental: as §1, §2, §3, §4, §5

| Structure (SMILES) | pest or weed control at 1 µg/cm2, 1 µg/cm2 [1] | pest or weed control at 0.0008 mg [2] | pest or weed control at 0.2 µg/cm2, 0.2 µg/cm2 [3] | pest or weed control at 1 µg/cm2, 1 µg/cm2 [3] | pest or weed control at 1 µg/cm2, 1 µg/cm2 [4] | pest or weed control at 4 ppm [5] | pest or weed control at 0.00016 mg [2] | pest or weed control at 0.8 ppm [5] | also measured |
| --- | --- | --- | --- | --- | --- | --- | --- | --- | --- |
| O=C(Nc1cccc(C(=O)Nc2c(Br)cc(C(F)(C(F)(F)F)C(F)(F)F)cc2OC(F)(F)F)c1)c1ccc(C(F)(F)F)cc1 [Compound 1] | 90% | 100% | – | – | – | – | – | – | – |
| O=C(Nc1cccc(C(=O)Nc2c(Br)cc(C(F)(C(F)(F)F)C(F)(F)F)cc2OC(F)(F)F)c1)c1ccc(Cl)cc1 [Compound 2] | 90% | 100% | – | – | – | – | – | – | – |
| N#Cc1ccc(C(=O)Nc2cccc(C(=O)Nc3c(Br)cc(C(F)(C(F)(F)F)C(F)(F)F)cc3C(F)(F)F)c2)cc1 [Compound 3] | 90% | 100% | 95% | 95% | 90% | 95% | – | – | pest or weed control at 0.2 µg/cm2, 0.2 µg/cm2 [4]: 90% |
| CN(C(=O)c1ccc(C#N)cc1)c1cccc(C(=O)Nc2c(Br)cc(C(F)(C(F)(F)F)C(F)(F)F)cc2C(F)(F)F)c1 [Compound 4] | 90% | 100% | 95% | 95% | – | – | – | – | – |
| CN(C(=O)c1ccc([N+](=O)[O-])cc1)c1cccc(C(=O)Nc2c(Br)cc(C(F)(C(F)(F)F)C(F)(F)F)cc2C(F)(F)F)c1 [Compound 5] | – | 100% | 95% | 95% | – | 95% | 100% | – | pest or weed control at 1 µg/cm2, 1 µg/cm2 [6]: 90% |
| CN(C(=O)c1ccc(C#N)nc1)c1cccc(C(=O)Nc2c(Br)cc(C(F)(C(F)(F)F)C(F)(F)F)cc2C(F)(F)F)c1 [Compound 6] | – | 100% | 95% | 95% | – | 95% | – | 95% | – |
| CN(C(=O)c1ccc(S(C)(=O)=O)cc1)c1cccc(C(=O)Nc2c(Br)cc(C(F)(C(F)(F)F)C(F)(F)F)cc2C(F)(F)F)c1 [Compound 7] | – | 100% | – | 95% | – | 95% | – | – | – |
| CN(C(=O)c1ccc(C#N)cc1)c1cc(C(=O)Nc2c(Br)cc(C(F)(C(F)(F)F)C(F)(F)F)cc2C(F)(F)F)ccc1F [Compound 8] | – | – | 95% | 95% | – | 95% | – | 95% | – |
| CN(C(=O)c1ccc(C#N)cc1)c1cccc(C(=O)Nc2c(Br)cc(C(F)(C(F)(F)F)C(F)(F)F)cc2OC(F)(F)F)c1 [Compound 10] | – | 100% | 95% | 95% | 90% | 95% | 100% | – | – |
| O=C(Nc1cccc(C(=O)Nc2c(Br)cc(C(F)(C(F)(F)F)C(F)(F)F)cc2OC(F)(F)F)c1)c1ccc([N+](=O)[O-])cc1 [Compound 11] | 90% | 100% | 95% | 95% | 90% | 95% | 100% | 95% | pest or weed control at 0.2 µg/cm2, 0.2 µg/cm2 [1]: 90%; pest or weed control at 0.04 µg/cm2, 0.04 µg/cm2 [4]: 90%; pest or weed control at 0.2 µg/cm2, 0.2 µg/cm2 [4]: 90%; pest or weed control at 0.16 ppm [5]: 95% |
| CN(C(=O)c1ccc(C#N)cc1F)c1cccc(C(=O)Nc2c(Br)cc(C(F)(C(F)(F)F)C(F)(F)F)cc2C(F)(F)F)c1 [Compound 14] | – | 100% | 95% | 95% | 90% | 95% | 100% | 95% | pest or weed control at 0.2 µg/cm2, 0.2 µg/cm2 [4]: 90%; pest or weed control at 0.16 ppm [5]: 95% |
| N#Cc1ccc(C(=O)Nc2cccc(C(=O)Nc3c(Br)cc(C(F)(C(F)(F)F)C(F)(F)F)cc3C(F)(F)F)c2)c(F)c1 [Compound 15] | 90% | 100% | 95% | 95% | 90% | 95% | 100% | – | pest or weed control at 0.2 µg/cm2, 0.2 µg/cm2 [1]: 90%; pest or weed control at 0.2 µg/cm2, 0.2 µg/cm2 [4]: 90% |
| CN(C(=O)c1ccc(C#N)cc1)c1cccc(C(=O)Nc2c(Br)cc(C(F)(C(F)(F)F)C(F)(F)F)cc2C(F)(F)F)c1F [Compound 17] | – | 100% | 95% | 95% | 90% | 95% | 100% | 95% | pest or weed control at 0.04 µg/cm2, 0.04 µg/cm2 ([3]; dose 0.04 μg/cm^2, dead or moribund fleas after 48 h): 95%; pest or weed control at 0.2 µg/cm2, 0.2 µg/cm2 ([6]; dose 0.2 μg/cm^2, 48 h): 90%; pest or weed control at 1 µg/cm2, 1 µg/cm2 [6]: 90%; pest or weed control at 0.04 µg/cm2, 0.04 µg/cm2 [4]: 90%; pest or weed control at 0.2 µg/cm2, 0.2 µg/cm2 [4]: 90%; pest or weed control at 32 ng [2]: 100%; pest or weed control at 0.0064 ppm ([5]; dose 0.0064 ppm in citrated cattle blood): 95%; pest or weed control at 0.032 ppm ([5]; dose 0.032 ppm in citrated cattle blood): 95%; pest or weed control at 0.16 ppm [5]: 95% |
| CN(C(=O)c1ccc(C#N)cc1Cl)c1cccc(C(=O)Nc2c(Br)cc(C(F)(C(F)(F)F)C(F)(F)F)cc2C(F)(F)F)c1 [Compound 18] | – | – | – | – | – | 95% | – | 95% | – |
| CN(C(=O)c1ccc(C#N)cc1)c1cccc(C(=O)Nc2c(I)cc(C(F)(C(F)(F)F)C(F)(F)F)cc2C(F)(F)F)c1 [Compound 20] | – | 100% | 95% | 95% | – | 95% | 100% | 95% | pest or weed control at 32 ng [2]: 100% |
| O=C(Nc1c(I)cc(C(F)(C(F)(F)F)C(F)(F)F)cc1C(F)(F)F)c1cccc(NC(=O)c2ccc(Cl)cc2Cl)c1 [Compound 32] | – | 100% | – | – | – | 95% | – | – | – |
| CS(=O)(=O)c1ccc(C(=O)Nc2cccc(C(=O)Nc3c(I)cc(C(F)(C(F)(F)F)C(F)(F)F)cc3C(F)(F)F)c2)c(Cl)c1 [Compound 40] | – | 100% | – | – | – | 95% | – | 95% | – |
| O=C(Nc1c(I)cc(C(F)(C(F)(F)F)C(F)(F)F)cc1C(F)(F)F)c1cccc(NC(=O)c2ccc(Cl)cc2Br)c1 [Compound 42] | – | 100% | – | – | – | 95% | 100% | 95% | – |
